Tests used:
[1] = system: PDE4; test: Inhibition of the PDE4 activity (cytosol from human neutrophils, [3H]cAMP hydrolysis); assay type: biochemical; set-up: unit not given here; settings: 0.5 μM cAMP, Motapizone 1 μM to suppress PDE3
Experimental: Method for Measuring Inhibition of PDE4 Activity
PDE4 activity was determined as described by Thompson et al. (Adv Cycl Nucl Res 10:69-92, 1979) with some modifications (Bauer and Schwabe, Naunyn-Schmiedeberg's Arch Pharmacol 311:193-198, 1980). At a final assay volume of 200 μl (96well microtiter plates) the assay mixture contained 20 mM Tris (pH 7.4), 5 mM MgCl2, 0.5 μM cAMP, [^3H]cAMP (about 30,000 cpm/assay), the test compound and an aliquot of cytosol from human neutrophilis which mainly contains PDE4 activity as described by Schudt et al. (Naunyn-Schmledeberg's Arch Pharmacol 344:682-690, 1991); the PDE3-specific inhibitor Motapizone (1 μM) was included to suppress PDE3 activity originating from contaminating platelets. Serial dilutions of the compounds were prepared in DMSO and further diluted 1:100 (v/v) in the assays to obtain the desired final concentrations of the inhibitors at a DMSO concentration of 1% (v/v) which by itself only slightly affected PDE4 activity.
After preincubation for 5 min at 37° C., the reaction was started by the addition of substrate (cAMP) and the assays were incubated for further 15 min at 37° C. 50 μl of 0.2 N HCl was added to stop the reaction and the assays were left on ice for about 10 min. Following incubation with 25 μg 5′-nucleotidase (Crotalus atrox snake venom) for 10 min at 37° C., the assays were loaded on QAE Sephadex A-25 (1 ml bed volume). The columns were eluted with 2 ml of 30 mM ammonium formulate (pH 6.0) and the […] for radioactivity. Results were corrected for blank values (measured in the presence of denatured protein) which were below 5% of total radioactivity. […] The IC50 -values for the compounds according to the invention for the inhibition of the PDE4 activity were determined from the concentration-inhibition curves by nonlinear-regression.

−log IC50, Inhibition of the PDE4 activity [1]	melting point [°C]	SMILES
8.26		COc1cc2c(cc1OC)C1CCCCC1N=C2c1ccc(C(C)=NOc2ccccc2)cc1 [Compound 7, 1-[4-((4aR,10bR)-8,9Dimethoxy-1,2,3,4,a,10b-hexahydrophenanthridin-6-yl}-phenyl]ethanone O-phenyloxime]
8.41		COc1cc2c(cc1OC)[C@H]1CCCC[C@H]1N=C2c1ccc(C(C)=NOCc2ccc([N+](=O)[O-])cc2)cc1 [Compound 5, 1-[4-((4aR,10bR)-8,9-Dimethoxy-1,2,3,4,4a,10b-hexahydrophenanthridin-6-yl}-phenyl]-ethanone O-(4-nitrobenzyl)-oxime]
8.47		COc1cc2c(cc1OC)[C@H]1CCCC[C@H]1N=C2c1ccc(C(C)=NOCc2cccc(F)c2)cc1 [Compound 17]
8.33		COc1cc2c(cc1OC)C1CCCCC1N=C2c1cccc(C(C)=NO)c1 (centres unmarked) [Compound 25]
8.75		COc1ccc(CON=C(C)c2ccc(C3=NC4CCCCC4c4cc(OC)c(OC)cc43)cc2)cc1 [Compound 23, 1-[4-((4aR,10bR)-8,9-Dimethoxy-1,2,3,4,4a,10b-hexahydrophenanthridin-6}-phenyl]-ethanone O-(4-methoxybenzyl)-oxime]
9.04		COc1cc2c(cc1OC)C1CCCCC1N=C2c1ccc(C(=NO)c2ccccc2)cc1 [Compound 2, 1-[4-((4aR,10bR)-8,9-Dimethoxy-1,2,3,4a,10b-hexahydrophenanthridin-6-yl}phenyl]-1-phenyl-methanone oxime]
8.08		CCON=C(C)c1ccc(C2=N[C@@H]3CCCC[C@@H]3c3cc(OC)c(OC)cc32)cc1 [Compound 6, 1-[4-((4aR,10bR)-8,9-Dimethoxy-1,2,3,4,4a,10b-hexahydrophenanthridin-6-yl}-phenyl]ethanone O-ethyloxime]
8.48		COc1cc2c(cc1OC)C1CCCCC1N=C2c1ccc(C(C)=NOCC(=O)NCc2ccc(Cl)cc2)cc1 [Compound 12, N-(4-Chlorobenzyl)-2-{1-[4-((4aR,10bR)-8,9-dimethoxy-1,2,3,4,a,10b-hexahydrophenanthridin-6-yl)-phenyl]-ethylideneaminooxy}-acetamide]
9.43	189 to 192	COc1cc2c(cc1OC)[C@H]1CCCC[C@H]1N=C2c1ccc(C(C)=NO)cc1 [Compound 1, 1-[4-((4aR,10bR)-8,9-Dimethoxy-1,2,3,4,4a,10b-hexahydrophenanthridin-6-yl}-phenyl]-ethanone oxime]
8.62		COc1cc2c(cc1OC)[C@H]1CCCC[C@H]1N=C2c1ccc(C(C)=NOCc2ccc(Cl)cc2)cc1 [Compound 22, 1-[4-((4aR,10bR)-8,9-Dimethoxy-1,2,3,4,4a,10b-hexahydrophenanthridin-6-yl)-phenyl]-ethanone O-(4-chlorobenzyl)-oxime]
8.00		COc1cc2c(cc1OC)[C@H]1CCCC[C@H]1N=C2c1ccc(C(C)=NOCCOc2cccc(C(F)(F)F)c2)cc1 [Compound 20, 1-[4-((4aR,10bR)-8,9-Dimethoxy-1,2,3,4,4a,10b-hexahydrophenanthridin-6-yl}-phenyl]-ethanone O-[2-(3-trifluoromethylphenoxy)-ethyl]-oxime]
8.20		COc1cc2c(cc1OC)[C@H]1CCCC[C@H]1N=C2c1ccc(C(C)=NOCc2ccccc2)cc1 [Compound 4, 1-[4-((4aR,10bR)-8,9-Dimethoxy-1,2,3,4,4a,10b-hexahydrophenanthridin-6-yl}-phenyl]-ethanone O-benzyloxime]
8.73		COc1cc2c(cc1OC)[C@H]1CCCC[C@H]1N=C2c1ccc(C(C)=NOCCOc2ccccc2)cc1 [Compound 19, 1-[4-((4aR,10bR)-8,9-Dimethoxy-1,2,3,4,4a,10b-hexahydrophenanthridin-6-yl)-phenyl]-ethanone O-(2-phenoxyethyl)-oxime]
8.01		COc1cc2c(cc1OC)[C@H]1CCCC[C@H]1N=C2c1ccc(C(C)=NOCC(C)C)cc1 [Compound 8, 1-[4-((4aR,10bR)-8,9-Dimethoxy-1,2,3,4,4a,10b-hexahydrophenanthridin-6yl)-phenyl]-ethanone O-isobutyloxime]
8.73		COc1cc2c(cc1OC)[C@H]1CCCC[C@H]1N=C2c1ccc(C(C)=NOCc2ccccc2Cl)cc1 [Compound 18, 1-[4-((4aR,10bR)-8,9-Dimethoxy-1,2,3,4,4a,10b-hexahydrophenanthridin-6-yl}-phenyl]-ethanone O-(2-chlorobenzyl)-oxime]
8.33		COc1ccccc1CON=C(C)c1ccc(C2=N[C@@H]3CCCC[C@@H]3c3cc(OC)c(OC)cc32)cc1 [Compound 15, 1-[4-((4aR,10bR)-8,9-Dimethoxy-1,2,3,4,4a,10b-hexahydrophenanthridin-6-yl}-phenyl]-ethanone O-(2-methoxy-benzyl)-oxime]
8.25		COc1cc2c(cc1OC)[C@H]1CCCC[C@H]1N=C2c1ccc(C(C)=NOCC(=O)N2CCOCC2)cc1 [Compound 24, 2-{1-[4-((4aR,10bR)-8,9-Dimethoxy-1,2,3,4,4a,10b-hexahydrophenanthridin-6-yl)-phenyl]-ethylideneaminooxy}-1-morpholin-4-yl-ethanone]
8.87		COc1ccccc1NC(=O)CON=C(C)c1ccc(C2=N[C@@H]3CCCC[C@@H]3c3cc(OC)c(OC)cc32)cc1 [Compound 11, 2-{1-[4-((4aR,10bR)-8,9-Dimethoxy-1,2,3,4,4a,10b-hexahydrophenanthridin-6-yl)-phenyl]ethylideneaminooxy}-N-(2-methoxyphenyl)-acetamide]
8.36		COc1cc2c(cc1OC)[C@H]1CCCC[C@H]1N=C2c1ccc(C(C)=NOCc2ccc(F)cc2)cc1 [Compound 16, 1-[4-((4aR,10bR)-8,9-Dimethoxy1,2,3,4,4a,10b-hexahydrophenanthridin-6-yl}-phenyl]-ethanone O-(4-flurobenzyl)-oxime]
8.43		COc1cc2c(cc1OC)[C@H]1CCCC[C@H]1N=C2c1ccc(C(C)=NOCc2cccc(C(F)(F)F)c2)cc1 [Compound 14, 1-[4-((4aR,10bR)-8,9-Dimethoxy-1,2,3,4,4a,10b-hexahydrophenanthridin-6-yl}-phenyl]-ethanone O-(3-trifluoromethylbenzyl)-oxime]
8.41		COc1cc2c(cc1OC)C1CCCCC1N=C2c1ccc(C(C)=NOCc2cccc(Cl)c2)cc1 (centres unmarked) [Compound 13]
9.27		COc1cc2c(cc1OC)[C@H]1CCCC[C@H]1N=C2c1cccc(C(=NO)c2ccccc2)c1 [Compound 26, 1-[3-((4aR,10bR)-8,9-Dimethoxy-1,2,3,4,4a,10b-hexahydrophenanthridin-6-yl}-phenyl]-1-phenyl-methanone oxime]
